1 compound from US7700617B2, “Salt of naphthyridine carboxylic acid derivative” (LG Life Sciences, Ltd., priority 1997, dated 2010) can be followed below.

SMILES strings stand for the structures. In brackets after ≈: the same amount, converted by molar mass.

This data set can be described thus: Water solubility. The settings on record: 25 °C.

In turn, `CO/N=C1\CN(c2nc3c(cc2F)c(=O)c(C(=O)O)cn3C2CC2)CC1CN` (stereo not shown) [Free form, 7-(3-aminomethyl-4-methoxyiminopyrrolidin-1-yl)-1-cyclopropyl-6-fluoro-4-oxo-1,4-dihydro-1,8-naphthyridine-3-carboxylic acid] came in with a solubility of 7 µg/mL (≈ 18 µM).

In general, solubility refers to the dissolved amount per volume that the medium holds. A low value points to a poorly soluble substance.
